# Laboratory results taken from PubChem BioAssay (NCI).
#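 The compound was tested at five concentrations on cells cultured in 96-well plates, with a 48-hour exposure period. GI50 = concentration required for 50% inhibition of growth. TGI is the concentration that stops growth completely.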
# Tests used:
# Assay in all cases: NCI-60 cell line screen, 48 h
# SNB-75 CNS = test system: SNB-75 CNS
# CCRF-CEM leukemia = test system: CCRF-CEM leukemia
# OVCAR-5 ovarian = test system: OVCAR-5 ovarian
# KM12 colon = test system: KM12 colon
# HCC-2998 colon = test system: HCC-2998 colon
# HOP-62 NSCLC = test system: HOP-62 NSCLC
# 786-0 renal = test system: 786-0 renal
# SK-MEL-2 melanoma = test system: SK-MEL-2 melanoma
# M14 melanoma = test system: M14 melanoma
# SK-MEL-28 melanoma = test system: SK-MEL-28 melanoma
Compound,GI50 (SNB-75 CNS),TGI (SNB-75 CNS),GI50 (CCRF-CEM leukemia),TGI (CCRF-CEM leukemia),GI50 (OVCAR-5 ovarian),TGI (OVCAR-5 ovarian),GI50 (KM12 colon),TGI (KM12 colon),GI50 (HCC-2998 colon),TGI (HCC-2998 colon),GI50 (HOP-62 NSCLC),TGI (HOP-62 NSCLC),GI50 (786-0 renal),TGI (786-0 renal),GI50 (SK-MEL-2 melanoma),TGI (SK-MEL-2 melanoma),GI50 (M14 melanoma),TGI (M14 melanoma),GI50 (SK-MEL-28 melanoma),TGI (SK-MEL-28 melanoma)
O=C(/C=C/c1ccc([N+](=O)[O-])cc1)c1ccc2c3c(cccc13)CC2,4.95 µM,23.8 µM,5.21 µM,> 100 µM,> 64.2 µM,> 100 µM,3.1 µM,14.2 µM,26.9 µM,> 78.1 µM,11.4 µM,> 81.9 µM,10.2 µM,> 88.9 µM,> 100 µM,> 100 µM,> 64.6 µM,> 100 µM,18.2 µM,58.9 µM
COc1ccc(C(=O)c2cc3c(N)c(C(=O)Nc4cccc5ccccc45)sc3nc2C)cc1,0.137 µM,> 50 µM,0.199 µM,> 50 µM,0.285 µM,> 50 µM,0.215 µM,> 50 µM,0.424 µM,> 50 µM,0.314 µM,> 50 µM,0.305 µM,> 50 µM,> 50 µM,> 50 µM,0.166 µM,> 50 µM,> 50 µM,> 50 µM
Cc1ccc(S(=O)(=O)Nc2cccc3[nH]c(C(F)(F)F)nc23)cc1,0.314 µM,2.45 µM,1.16 µM,> 100 µM,1.85 µM,> 74.1 µM,0.347 µM,26.8 µM,2.89 µM,40.3 µM,1.21 µM,41.8 µM,1.94 µM,67.3 µM,0.321 µM,3.54 µM,0.355 µM,38.6 µM,0.654 µM,> 92.8 µM
CCc1ccc(NC(=O)COC(=O)c2cc([N+](=O)[O-])ccc2Sc2nnnn2C)cc1,13.1 µM,35 µM,9.11 µM,78.3 µM,17.2 µM,76 µM,19.6 µM,> 100 µM,15.7 µM,29.2 µM,15.2 µM,36 µM,21.1 µM,72.9 µM,23.3 µM,> 100 µM,3.16 µM,26 µM,9.94 µM,28.8 µM
CCOc1ccccc1N=Nc1c(C)[nH]n(-c2nc(-c3ccccc3)cs2)c1=O,14.3 µM,48.3 µM,> 100 µM,> 100 µM,> 100 µM,> 100 µM,> 100 µM,> 100 µM,> 100 µM,> 100 µM,35.1 µM,> 100 µM,35.4 µM,> 100 µM,27.3 µM,> 100 µM,> 100 µM,> 100 µM,> 84.9 µM,> 100 µM
COc1cc(C2C(Cl)C(=O)N2NC(=O)c2ccc(N)cc2)ccc1O (stereo unspecified),,> 100 µM,,47.3 µM,,> 100 µM,,> 100 µM,,38 µM,,> 100 µM,,39.4 µM,,> 100 µM,,> 100 µM,,> 100 µM
CC1=C(CO)C(=O)O[C@@H]([C@@H](C)[C@H]2CC[C@H]3[C@@H]4C[C@@H](O)[C@@]5(O)CC=CC(=O)[C@]5(C)[C@H]4CC[C@]23C)C1,,> 100 µM,,> 100 µM,,> 100 µM,,58.8 µM,,> 100 µM,,> 100 µM,,90.8 µM,,> 100 µM,,> 100 µM,,> 100 µM
O=C(Nc1cccc(NC(=O)Nc2cc(C(F)(F)F)ccc2Cl)c1)Nc1cc(C(F)(F)F)ccc1Cl,1.56 µM,4.51 µM,3.21 µM,71.7 µM,9.01 µM,> 100 µM,1.53 µM,57.1 µM,6.72 µM,> 100 µM,1.35 µM,4.01 µM,4.93 µM,> 100 µM,2.53 µM,7.33 µM,3.53 µM,60 µM,2.84 µM,15.4 µM
N#CC(c1nc2ccccc2nc1Cl)S(=O)(=O)c1ccccc1 (stereo unspecified),,> 100 µM,,> 100 µM,,> 100 µM,,> 100 µM,,> 100 µM,,> 100 µM,,> 100 µM,,> 100 µM,,> 100 µM,,> 100 µM
Cc1ccc(CNc2c3ccccc3nc3cc(NC(=O)CCN4CCCC4)ccc23)cc1,1.06 µM,2.26 µM,0.392 µM,2.12 µM,0.793 µM,2.1 µM,0.534 µM,1.79 µM,0.573 µM,2.01 µM,0.68 µM,2.38 µM,0.732 µM,2.04 µM,1.69 µM,3.23 µM,1.45 µM,2.84 µM,1.66 µM,3.09 µM
COc1ccc(C2SC(C)C(=O)N2NC(=O)C(O)c2ccccc2)cc1OC (stereo unspecified),> 100 µM,> 100 µM,> 100 µM,> 100 µM,> 100 µM,> 100 µM,> 100 µM,> 100 µM,> 100 µM,> 100 µM,> 100 µM,> 100 µM,> 100 µM,> 100 µM,> 100 µM,> 100 µM,> 100 µM,> 100 µM,> 100 µM,> 100 µM
O=C(NN1C(=O)CSC12CCCC2)c1[nH]c2ccc(Br)cc2c1-c1ccccc1,46.1 µM,> 100 µM,40.1 µM,> 100 µM,> 100 µM,> 100 µM,28.5 µM,> 100 µM,44.6 µM,> 100 µM,62.5 µM,> 100 µM,22.3 µM,> 100 µM,69 µM,> 100 µM,49.1 µM,> 100 µM,44 µM,> 100 µM
CC1=C2C(=CC(C)(C)C2O)C(=O)C(C)(O)C12CC2 (stereo unspecified),,0.0377 µM,,0.126 µM,,0.0433 µM,,0.109 µM,,0.0268 µM,,0.0447 µM,,0.0388 µM,0.0108 µM,0.0283 µM,,0.0602 µM,,0.0865 µM
[N-]=[N+]=NC(CI)c1cn([C@H]2C[C@H](O)[C@@H](CO)O2)c(=O)[nH]c1=O (stereo partly specified),,> 100 µM,,> 100 µM,,> 100 µM,,> 100 µM,,> 100 µM,,> 100 µM,,> 100 µM,,> 100 µM,,> 100 µM,,> 100 µM
COC(=O)C1=C(c2cc(OC)c(OC)c(OC)c2)OC(c2ccc(OC)c(OC)c2)C1 (stereo unspecified),,> 100 µM,,> 100 µM,,> 100 µM,,> 100 µM,,> 100 µM,,> 100 µM,,> 100 µM,,> 100 µM,,> 100 µM,,> 100 µM
